Test results reported in patent US20240270821A1, “GIP/GLP1/GCG TRI-RECEPTOR AGONISTS AND USES THEREOF” (priority 2023, published 2024).
Like-named read-outs stand apart in the source and are kept apart here. Marks after values point to notes of the source that are not given here. Starred links: 1 amine or outer side, 2 acyl side, 3 side chain; linkers in the order of their positions; H or OH if unused. Non-standard residues stand in square brackets, D forms with d. Residues, ends and D or L forms follow the SMILES beside them. Groups on a side chain read outwards from the residue. *: point of attachment. C18 diacid = O=C(O)CCCCCCCCCCCCCCCCC(=O)*; αMePhe(2-F) = C[C@](N)(Cc1ccccc1F)C(=O)O; γGlu = O=C(O)[C@H](CCC(=O)[*:2])N[*:1]; αMe4Pal = C[C@](N)(Cc1ccncc1)C(=O)O; αMeY = C[C@](N)(Cc1ccc(O)cc1)C(=O)O; 4Pal = N[C@@H](Cc1ccncc1)C(=O)O; αMeL = CC(C)C[C@](C)(N)C(=O)O; αMeS = C[C@](N)(CO)C(=O)O; Orn = NCCC[C@H](N)C(=O)O; AEEA = NCCOCCOCC(=O)O; Aib = CC(C)(N)C(=O)O

Legend:
hGIPR [1] = molecular target: T1, hGIPR (Homo sapiens, UniProt P48546); assay: Functional cAMP activity in the presence of 1% HSA; assay type: cell-based; conditions: read-out: cAMP Rel EC50, hGIPR
T1 sequence (P48546 22-466): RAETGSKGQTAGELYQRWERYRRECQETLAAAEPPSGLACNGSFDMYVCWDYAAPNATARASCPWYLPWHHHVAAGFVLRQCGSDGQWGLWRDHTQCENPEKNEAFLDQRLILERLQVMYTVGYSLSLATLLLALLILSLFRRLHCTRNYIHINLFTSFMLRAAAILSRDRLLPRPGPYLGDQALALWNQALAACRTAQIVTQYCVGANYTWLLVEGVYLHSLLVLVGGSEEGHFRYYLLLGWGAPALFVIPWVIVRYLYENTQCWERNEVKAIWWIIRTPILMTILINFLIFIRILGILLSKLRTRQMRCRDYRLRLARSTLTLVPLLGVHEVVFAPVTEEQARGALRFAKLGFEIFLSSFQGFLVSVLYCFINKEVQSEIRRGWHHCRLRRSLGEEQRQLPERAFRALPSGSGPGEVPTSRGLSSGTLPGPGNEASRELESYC

[2] = Body weight in diet-induced obese C57BL/6 mice; assay type: in vivo; conditions: 10 nmol/kg SC QD, percent of starting weight, DIO mice, mean ± SEM n=5
In short: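 Daily weighing gave body weight as percent of starting value (mean±SEM, n=5) over 9-16 days of SC dosing, once daily or every 3 days, shortly before lights-off. Animals were weight-randomized male C57BL/6 DIO mice, 41-50 g, fed ad libitum on a calorie-rich diet.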

human GcgR = human GcgR (Homo sapiens, UniProt P47871); assay: Functional cAMP activity in the presence of 1% HSA; assay type: cell-based; conditions: read-out: cAMP Rel EC50, hGcgR
Sequence of human GcgR (P47871 26-477): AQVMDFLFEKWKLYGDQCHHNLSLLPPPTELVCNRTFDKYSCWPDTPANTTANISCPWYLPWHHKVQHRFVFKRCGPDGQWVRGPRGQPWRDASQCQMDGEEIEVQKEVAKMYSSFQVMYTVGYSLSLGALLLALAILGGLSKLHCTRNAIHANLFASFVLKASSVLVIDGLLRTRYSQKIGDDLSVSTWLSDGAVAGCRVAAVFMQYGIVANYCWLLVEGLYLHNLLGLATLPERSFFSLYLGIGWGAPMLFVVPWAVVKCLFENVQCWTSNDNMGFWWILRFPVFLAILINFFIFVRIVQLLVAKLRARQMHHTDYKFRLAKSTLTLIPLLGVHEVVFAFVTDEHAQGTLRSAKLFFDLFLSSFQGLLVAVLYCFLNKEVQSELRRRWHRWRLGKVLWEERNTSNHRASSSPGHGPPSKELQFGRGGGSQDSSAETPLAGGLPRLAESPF

hGLP-1R [3] = molecular target: T2, hGLP-1R (Homo sapiens, UniProt P43220); assay: Functional cAMP activity in the presence of 1% HSA; assay type: cell-based; conditions: read-out: cAMP Rel EC50, hGLP-1R
T2 sequence (P43220 24-463): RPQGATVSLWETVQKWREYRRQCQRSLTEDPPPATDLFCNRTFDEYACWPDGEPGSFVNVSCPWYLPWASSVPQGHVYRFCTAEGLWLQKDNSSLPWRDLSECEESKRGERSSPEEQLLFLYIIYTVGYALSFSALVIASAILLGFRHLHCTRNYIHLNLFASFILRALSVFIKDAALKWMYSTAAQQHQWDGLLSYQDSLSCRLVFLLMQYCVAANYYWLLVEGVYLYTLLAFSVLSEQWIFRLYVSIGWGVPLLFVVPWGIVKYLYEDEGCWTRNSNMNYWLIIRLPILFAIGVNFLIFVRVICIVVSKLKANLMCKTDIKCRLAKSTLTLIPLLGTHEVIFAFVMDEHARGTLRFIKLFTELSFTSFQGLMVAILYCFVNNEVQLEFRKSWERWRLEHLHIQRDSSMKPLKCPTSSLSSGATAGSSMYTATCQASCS

hGLP-1R [4] = molecular target: T2, hGLP-1R; assay: Functional cAMP activation in the presence of 0.1% casein (no HSA); assay type: cell-based; conditions: read-out: Relative cAMP EC50, hGLP-1R;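 for Relative cAMP EC50, hGIPR: intracellular cAMP rise after 30 min at 37 °C read by HTRF against a standard curve, scaled between buffer alone (0%) and top control ligand concentration (100%), four-parameter fit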;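 for Relative cAMP EC50, hGLP-1R: intracellular cAMP rise after 30 min at 37 °C read by HTRF, normalized between buffer only (0%) and maximal control ligand (100%), four-parameter variable-slope fit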;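 for Relative cAMP EC50, hGcgR: intracellular cAMP rise after 30 min at 37 °C, read by HTRF against a cAMP standard curve, scaled from buffer only (0%) to maximal control ligand response (100%)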
in vivo [5] = assay: in vivo; parameters: species or system Sprague Dawley rats; conditions: male, Sprague Dawley, rat, 4 mg/kg
Method: The pharmacokinetics of the exemplary analogs are evaluated following a single subcutaneous (SC) administration of 10 nmol/kg (dissolved in 40 mM Tris pH8) or single 4 mg/kg (mixed with 250 mM sodium decanoate/C10 in 40 mM Tris pH8) intrajejunal (IJ) administration to male Sprague Dawley rats. Blood samples are collected over 96 hours following SC administration and 72 hours following IJ dosing, and resulting individual plasma concentrations are used to calculate pharmacokinetic parameters. Peptide plasma (K3 EDTA) concentrations are determined using a qualified LC/MS method that measured the intact mass of the analog. Each peptide and an analog as an internal standard are extracted from rat plasma using methanol. A High Resolution Instrument was used for LC/MS detection.

hGIPR [6] = molecular target: T1, hGIPR; assay: Functional cAMP activation in the presence of 0.1% casein (no HSA); assay type: cell-based; conditions: read-out: Relative cAMP EC50, hGIPR;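 for Relative cAMP EC50, hGIPR: intracellular cAMP rise after 30 min at 37 °C read by HTRF against a standard curve, scaled between buffer alone (0%) and top control ligand concentration (100%), four-parameter fit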;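 for Relative cAMP EC50, hGLP-1R: intracellular cAMP rise after 30 min at 37 °C read by HTRF, normalized between buffer only (0%) and maximal control ligand (100%), four-parameter variable-slope fit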;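 for Relative cAMP EC50, hGcgR: intracellular cAMP rise after 30 min at 37 °C, read by HTRF against a cAMP standard curve, scaled from buffer only (0%) to maximal control ligand response (100%)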
hGcgR = hGcgR (Homo sapiens, UniProt P47871); assay: as above; assay type: cell-based; conditions: read-out: Relative cAMP EC50, hGcgR;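 note: intracellular cAMP rise after 30 min at 37 °C, read by HTRF against a cAMP standard curve, scaled from buffer only (0%) to maximal control ligand response (100%)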
Sequence of hGcgR (P47871 26-477): as the sequence (P47871 26-477) above

[7] = Pepsin stability assay in simulated gastric fluid; assay type: in vitro ADME; conditions: pH 1.2, % Intact (SD)
In short: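 Peptides (10 mg/mL stock in 50 mM Tris pH 8.0) incubated with pepsin A in simulated gastric fluid at 37° C. with shaking. Aliquots taken at time intervals were quenched with 100 mM ammonium bicarbonate pH 9, and intact peptide remaining was quantified by LC/MS.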

human GLP1-R = human GLP1-R (Homo sapiens, UniProt P43220); assay: GLP1-R internalization assay in HEK293 cells; assay type: cell-based
Sequence of human GLP1-R (P43220 24-463): as the sequence (P43220 24-463) above

[8] = system: Intestinal organoid from Göttingen minipig jejunum tissue, 2D monolayer; assay: Cell based in vitro permeability (Papp) assay; assay type: in vitro ADME
In short: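 Papp calculated from LC/MS peptide levels in apical and basal compartments. Basal sampling at 20 min with C10 present, across monolayers grown from dissociated minipig jejunal organoids in transwells.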

in vivo [9] = assay: in vivo; parameters: species or system cynomolgus monkeys; conditions: both sexes, cynomolgus monkey, iv, 10 nmol/kg
Method: (§1) A study is designed to evaluate the oral bioavailability of Example polypeptides in cynomolgus monkeys. […] Standards and controls are prepared in cynomolgus monkey plasma, and any dilutions required to bring samples into the quantitative range are also performed in control cynomolgus monkey plasma. To control assay variability, an internal standard (IS) is added to all the standards and samples. The Examples and IS are extracted from 100% monkey plasma (50 μL) by protein precipitation using isopropyl alcohol and methanol (50:50 v/v). The samples are then centrifuged (3000 rpm for 10 minutes) and the supernatant is transferred to a Siricco Protein Precipitation Plate. The samples are loaded on a Sep-Pak tC18 SPE microelution plate that is conditioned with 2% formic acid in acetonitrile and water. The compounds are then washed with 2% formic acid in water and eluted using 2% formic acid in acetonitrile into a plate containing 5× Invitrosol and 1% formic acid in water prior to injecting an aliquot (10 μL) on to Xselect CSH C18, 3.5 μm, 2.1×20 mm for LC/MS analysis.
Blood samples are collected over 504 hours. Plasma is harvested from blood samples by centrifugation and stored frozen (−70° C.) until analysis. Plasma concentrations of the molecules are detected using the bioanalytical method described above.

in vivo [10] = assay: in vivo; parameters: species or system cynomolgus monkeys; conditions: both sexes, cynomolgus monkey, po
Method: as §1
[…] Blood samples are collected up to 504 hours post-dose. Plasma is harvested from blood samples by centrifugation and stored frozen (−70° C.) until analysis. Plasma concentrations of the molecules are detected using the bioanalytical method described above.

[11] = in the presence of 0.1% casein (no HSA), geometric mean

Row | Compound | EC50 (hGIPR [1]) [nM] | Body weight (%) ([2]; 14 days) | EC50 (human GcgR) [nM] | EC50 (hGLP-1R [3]) [nM] | EC50 (hGLP-1R [4]; [11]) [nM] | CL/F (in vivo [5]) [mL/min/kg] | half-life (in vivo [5]) [h] | EC50 (hGIPR [6]; [11]) [nM] | EC50 (hGcgR; [11]) [nM] | further results
1 | CC[C@H](C)[C@H](NC(=O)[C@H](Cc1ccccc1)NC(=O)[C@H](CCCN)NC(=O)C(C)(C)NC(=O)[C@H](CCC(N)=O)NC(=O)[C@H](C)NC(=O)[C@H](CCCCNC(=O)COCCOCCNC(=O)CC[C@H](NC(=O)CCCCCCCCCCCCCCCCC(=O)O)C(=O)O)NC(=O)[C@H](CCCN)NC(=O)[C@H](CC(=O)O)NC(=O)[C@H](CC(C)C)NC(=O)[C@](C)(CC(C)C)NC(=O)[C@@H](NC(=O)[C@](C)(CO)NC(=O)[C@H](Cc1ccc(O)cc1)NC(=O)[C@H](CC(=O)O)NC(=O)[C@H](CO)NC(=O)[C@@H](NC(=O)[C@](C)(Cc1ccccc1F)NC(=O)[C@@H](NC(=O)CNC(=O)[C@H](CCC(N)=O)NC(=O)C(C)(C)NC(=O)[C@@H](N)Cc1ccc(O)cc1)[C@@H](C)O)[C@@H](C)O)[C@@H](C)CC)C(=O)N[C@H](CCC(=O)O)C(=O)N[C@@](C)(Cc1ccc(O)cc1)C(=O)N[C@@H](CC(C)C)C(=O)N[C@@H](CC(C)C)C(=O)N[C@@H](CCC(=O)O)C(=O)NCC(=O)NCC(=O)N1CCC[C@H]1C(=O)N[C@@H](CO)C(=O)N[C@@H](CO)C(=O)NCC(=O)N[C@@H](CCC(=O)O)C(=O)N1CCC[C@H]1C(=O)N1CCC[C@H]1C(=O)N1CCC[C@H]1C(=O)N[C@@H](CO)C(N)=O [Example 368] (H-Y[Aib]QGT[αMePhe(2-F)]TSDY[αMeS]I[αMeL]LD[Orn]K([AEEA-γGlu-C18 diacid])AQ[Aib][Orn]FI[dE][αMeY]LLEGGPSSGEPPPS-NH2) | 2.62 | 52.52 +/− 2.49**** % | 111 | 37.4 | 0.242 | 7.33 | 9.6 | 0.0121 | 0.481 | 
2 | CC[C@H](C)[C@H](NC(=O)[C@H](Cc1ccccc1)NC(=O)[C@H](C)NC(=O)C(C)(C)NC(=O)[C@H](CCC(N)=O)NC(=O)[C@H](C)NC(=O)[C@H](CCCCNC(=O)COCCOCCNC(=O)CC[C@H](NC(=O)CCCCCCCCCCCCCCCCC(=O)O)C(=O)O)NC(=O)[C@H](CCCN)NC(=O)[C@H](CC(=O)O)NC(=O)[C@H](CC(C)C)NC(=O)[C@](C)(CC(C)C)NC(=O)[C@@H](NC(=O)[C@](C)(CO)NC(=O)[C@H](Cc1ccc(O)cc1)NC(=O)[C@H](CC(=O)O)NC(=O)[C@H](CO)NC(=O)[C@@H](NC(=O)[C@](C)(Cc1ccccc1F)NC(=O)[C@@H](NC(=O)CNC(=O)[C@H](CCC(N)=O)NC(=O)C(C)(C)NC(=O)[C@@H](N)Cc1c[nH]cn1)[C@@H](C)O)[C@@H](C)O)[C@@H](C)CC)C(=O)N[C@H](CCC(=O)O)C(=O)N[C@@H](Cc1ccc(O)cc1)C(=O)N[C@@H](CC(C)C)C(=O)N[C@@H](CC(C)C)C(=O)N[C@@H](CCC(=O)O)C(=O)NCC(=O)NCC(=O)N1CCC[C@H]1C(=O)N[C@@H](CO)C(=O)N[C@@H](CO)C(=O)NCC(=O)N[C@@H](CCC(=O)O)C(=O)N1CCC[C@H]1C(=O)N1CCC[C@H]1C(=O)N1CCC[C@H]1C(=O)N[C@@H](CCC(=O)O)C(N)=O [Example 381] (H-H[Aib]QGT[αMePhe(2-F)]TSDY[αMeS]I[αMeL]LD[Orn]K([AEEA-γGlu-C18 diacid])AQ[Aib]AFI[dE]YLLEGGPSSGEPPPE-NH2) | 7.01 |  | 176 | 24.5 | 0.157 | 9.83 | 8.3 | 0.0156 | 1.39 | 
3 | CC[C@H](C)[C@H](NC(=O)[C@H](Cc1ccccc1)NC(=O)[C@H](C)NC(=O)C(C)(C)NC(=O)[C@H](CCC(N)=O)NC(=O)[C@H](C)NC(=O)[C@H](CCCCNC(=O)COCCOCCNC(=O)CC[C@H](NC(=O)CCCCCCCCCCCCCCCCC(=O)O)C(=O)O)NC(=O)[C@H](CCCCN)NC(=O)[C@H](CC(=O)O)NC(=O)[C@H](CC(C)C)NC(=O)[C@H](CC(C)C)NC(=O)[C@@H](NC(=O)[C@H](CO)NC(=O)[C@H](Cc1ccc(O)cc1)NC(=O)[C@H](CC(=O)O)NC(=O)[C@H](CO)NC(=O)[C@@H](NC(=O)[C@](C)(Cc1ccccc1F)NC(=O)[C@@H](NC(=O)CNC(=O)[C@H](CCC(N)=O)NC(=O)C(C)(C)NC(=O)[C@@H](N)Cc1ccc(O)cc1)[C@@H](C)O)[C@@H](C)O)[C@@H](C)CC)C(=O)N[C@@H](CCC(=O)O)C(=O)N[C@@H](Cc1ccc(O)cc1)C(=O)N[C@@H](CC(C)C)C(=O)N[C@@H](CCC(=O)O)C(=O)N[C@@H](CCC(=O)O)C(=O)NCC(=O)NCC(=O)N1CCC[C@H]1C(=O)N[C@@H](CO)C(=O)N[C@@H](CO)C(=O)NCC(=O)N[C@@H](C)C(=O)N1CCC[C@H]1C(=O)N1CCC[C@H]1C(=O)N1CCC[C@H]1C(=O)N[C@@H](CO)C(N)=O [Example 387] (H-Y[Aib]QGT[αMePhe(2-F)]TSDYSILLDKK([AEEA-γGlu-C18 diacid])AQ[Aib]AFIEYLEEGGPSSGAPPPS-NH2) | 5.64 |  | 184 | 26.5 | 0.255 | 14 | 9.2 | 0.0276 | 2.14 | 
4 | H-Y[Aib]QGT[αMePhe(2-F)]TSD[4Pal][αMeS]I[αMeL]LD[Orn]K([AEEA-γGlu-C18 diacid])AQ[αMe4Pal]EFI[dE][αMeY]LVEGGPSSGAPPPSGS-NH2 [Example 694] | 0.787 | 69.77 ± 2.96 % | 206 | 25 |  |  |  |  |  | remaining at 0.25 h, 0.4 mg/mL [7]: 101%; Body weight (%) ([2]; 7 days): 71.92 ± 1.28 %; EC50 (human GLP1-R; HEK293 cells expressing SNAP-GLP-1R, read-out: GLP1R Internalization EC50): 21.8 nM; Internalization % TOP (human GLP1-R; normalized to maximum concentration of GLP-1 (100%)): 97.3%; Relative Papp (Compared to internal standard) [8]: 0.60; EC50 (hGLP-1R [4]): 0.253 nM; EC50 (hGIPR [6]): 0.00781 nM; AUC(0-inf) (in vivo [9]): 10.7 ± 2.75 µM·h; clearance (in vivo [9]): 0.0163 mL/min/kg; half-life (in vivo [9]): 50.7 ± 16.8 h; bioavailability (in vivo [10]; 10 mg): 2.4%; AUC(0-inf) (in vivo [10]; 300 mg): 14.8 µM·h; CL/F (in vivo [10]; 300 mg): 0.873 mL/min/kg; Cmax (in vivo [10]; 300 mg): 353 nM; Tmax (in vivo [10]; 300 mg): 3.5 h; half-life (in vivo [10]; 300 mg): 50.7 h; EC50 (hGcgR): 2.04 nM
